Source: patent US20220323406A1, “METHODS AND COMPOSITIONS FOR DIFFERENTIATING STEM CELLS” (Massachusetts Institute of Technology, priority 2019, published 2022)
Counter-ions that a name gives are not always drawn.

Columns and labels:
[1] = system: ENR+CD organoids (ISC to Paneth cell differentiation); assay: Primary screen: basal (non-stimulated) lysozyme secretion LYZ.NS, 2.5-D 384-well ENR+CD organoid differentiation; type: cell-based, mouse; conditions: primary screen; for Z.LYZ.NS: standard z score
From the text: (§1) High-throughput screening.

[2] = system: ENR+CD organoids (ISC to Paneth cell differentiation); assay: Primary screen: CCh-stimulated lysozyme secretion LYZ.S, 2.5-D 384-well ENR+CD organoid differentiation; type: cell-based, mouse; conditions: primary screen
From the text: as §1

ENR+CD organoids = assay: Primary screen: ATP (CellTiter-Glo 3D, CTG) cell number/viability, 2.5-D 384-well ENR+CD organoids; conditions: primary screen; for Z.CTG: standard z score;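 for all read-outs here: compounds given at plating and again on day 3 over a 6-day differentiation from ENR+CV stem-cell-enriched precursors, ATP measured on day 6, plate median as control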

Row | SMILES | Dose.FC.LYZ.NS ([1]; dose 0.08 uM) | Dose.FC.LYZ.NS ([1]; dose 0.40 uM) | Dose.FC.LYZ.NS ([1]; dose 2.00 uM) | Dose.FC.LYZ.NS ([1]; dose 10.00 uM) | Z.LYZ.NS ([1]; dose 0.08 uM) | Z.LYZ.NS ([1]; dose 0.40 uM) | Z.LYZ.NS ([1]; dose 2.00 uM) | Z.LYZ.NS ([1]; dose 10.00 uM) | Dose.FC.LYZ.S ([2]; dose 0.08 uM) | Dose.FC.LYZ.S ([2]; dose 0.40 uM) | Dose.FC.LYZ.S ([2]; dose 2.00 uM) | Dose.FC.LYZ.S ([2]; dose 10.00 uM) | Dose.FC.CTG (ENR+CD organoids; dose 0.08 uM) | Dose.FC.CTG (ENR+CD organoids; dose 0.40 uM) | Dose.FC.CTG (ENR+CD organoids; dose 2.00 uM) | Dose.FC.CTG (ENR+CD organoids; dose 10.00 uM) | Z.CTG (ENR+CD organoids; dose 0.08 uM) | Z.CTG (ENR+CD organoids; dose 0.40 uM) | Z.CTG (ENR+CD organoids; dose 2.00 uM) | Z.CTG (ENR+CD organoids; dose 10.00 uM)
1 | Nc1ncnc2n[nH]c(Nc3ccc(F)cc3)c12 [CGP57380] | 0.218 log2 fold change | −0.041 log2 fold change | −0.055 log2 fold change | −0.037 log2 fold change | 1.900 | −0.354 | −0.477 | −0.321 | 0.096 log2 fold change | 0.054 log2 fold change | −0.095 log2 fold change | −0.088 log2 fold change | 0.108 log2 fold change | −0.293 log2 fold change | −0.460 log2 fold change | 0.055 log2 fold change | 0.258 | −0.700 | −1.098 | 0.132
2 | CCNC(=O)[C@H]1O[C@@H](n2cnc3c(N)nc(NCCc4ccc(CCC(=O)O)cc4)nc32)[C@H](O)[C@@H]1O [CGS 21680 HCl] | 0.132 log2 fold change | 0.167 log2 fold change | 0.055 log2 fold change | −0.251 log2 fold change | 1.151 | 1.452 | 0.483 | −2.187 | 0.180 log2 fold change | 0.191 log2 fold change | 0.097 log2 fold change | −0.334 log2 fold change | 0.303 log2 fold change | 0.439 log2 fold change | 0.335 log2 fold change | −1.393 log2 fold change |  |  |  | 
3 | O=c1[nH]c2ccc(Cl)cc2c(N[C@@H]2CN3CCC2CC3)c1-c1nc2ccccc2[nH]1 [CHIR-124] | −0.155 log2 fold change | −0.240 log2 fold change | −0.220 log2 fold change | −0.140 log2 fold change | −1.352 | −2.090 | −1.916 | −1.223 | −0.267 log2 fold change | −0.339 log2 fold change | −0.352 log2 fold change | −0.332 log2 fold change | −0.256 log2 fold change | −0.853 log2 fold change | −0.861 log2 fold change | −1.555 log2 fold change | −0.612 | −2.038 | −2.057 | −3.714
4 | Cc1[nH]c2ccccc2c1CCNC(=O)c1cccs1 [CK-636] | 0.039 log2 fold change | −0.049 log2 fold change | −0.066 log2 fold change | −0.108 log2 fold change | 0.336 | −0.427 | −0.573 | −0.944 | 0.080 log2 fold change | −0.013 log2 fold change | 0.072 log2 fold change | −0.103 log2 fold change | 0.202 log2 fold change | −0.004 log2 fold change | −0.201 log2 fold change | −0.169 log2 fold change | 0.483 | −0.010 | −0.479 | −0.404
5 | C=CC(=O)Nc1cccc(Nc2nc(Nc3ccc(Oc4ccnc(C(=O)NC)c4)cc3)ncc2F)c1 [CNX-774] | 0.075 log2 fold change | −0.008 log2 fold change | 0.158 log2 fold change | −0.043 log2 fold change | 0.655 | −0.067 | 1.378 | −0.376 | 0.014 log2 fold change | −0.027 log2 fold change | 0.082 log2 fold change | −0.089 log2 fold change | 0.259 log2 fold change | 0.177 log2 fold change | −0.109 log2 fold change | −0.081 log2 fold change | 0.619 | 0.422 | −0.260 | −0.194
6 | CN(C)C(=O)[C@H](O)[C@H](Cc1ccccc1)NC(=O)c1cc2cc(Cl)ccc2[nH]1 [CP-91149] | 0.177 log2 fold change | −0.033 log2 fold change | 0.028 log2 fold change | −0.057 log2 fold change | 1.538 | −0.289 | 0.245 | −0.498 | 0.186 log2 fold change | 0.055 log2 fold change | −0.121 log2 fold change | −0.097 log2 fold change | 0.031 log2 fold change | −0.023 log2 fold change | −0.098 log2 fold change | −0.100 log2 fold change | 0.073 | −0.056 | −0.234 | −0.239
7 | COCCOc1ccc2c(c1)ncn2-c1ccc2cccc(N3CCC(N)CC3)c2n1 [CP-673451] | 0.031 log2 fold change | 0.066 log2 fold change | 0.102 log2 fold change | −0.058 log2 fold change | 0.274 | 0.577 | 0.886 | −0.508 | 0.096 log2 fold change | −0.046 log2 fold change | 0.080 log2 fold change | −0.147 log2 fold change | 0.069 log2 fold change | 0.186 log2 fold change | 0.008 log2 fold change | −0.258 log2 fold change |  |  |  | 
8 | O=C(O)c1cc2cccc([N+](=O)[O-])c2[nH]1 [CRT0044876] | 0.016 log2 fold change | 0.034 log2 fold change | 0.047 log2 fold change | 0.032 log2 fold change | 0.135 | 0.298 | 0.408 | 0.278 | −0.002 log2 fold change | 0.055 log2 fold change | 0.014 log2 fold change | −0.061 log2 fold change | −0.171 log2 fold change | −0.040 log2 fold change | −0.081 log2 fold change | −0.099 log2 fold change | −0.410 | −0.096 | −0.192 | −0.237
9 | O=C(/C=C/c1ccc(O)c(O)c1)OCCc1ccccc1 [Caffeic Acid Phenethyl Ester] | 0.053 log2 fold change | 0.167 log2 fold change | 0.090 log2 fold change | −0.026 log2 fold change | 0.465 | 1.453 | 0.781 | −0.227 | 0.189 log2 fold change | 0.070 log2 fold change | −0.021 log2 fold change | −0.117 log2 fold change | 0.262 log2 fold change | −0.011 log2 fold change | −0.064 log2 fold change | −0.511 log2 fold change |  |  |  | 
10 | Cc1ccc([C@@H]2O[C@H](CO)[C@@H](O)[C@H](O)[C@H]2O)cc1Cc1ccc(-c2ccc(F)cc2)s1 [Canagliflozin] | −0.027 log2 fold change | −0.046 log2 fold change | 0.025 log2 fold change | −0.064 log2 fold change | −0.233 | −0.398 | 0.214 | −0.556 | 0.014 log2 fold change | −0.032 log2 fold change | 0.028 log2 fold change | −0.033 log2 fold change | −0.240 log2 fold change | −0.098 log2 fold change | 0.042 log2 fold change | −0.079 log2 fold change | −0.572 | −0.235 | 0.101 | −0.188
11 | CCOc1nc2cccc(C(=O)O)c2n1Cc1ccc(-c2ccccc2-c2nnn[nH]2)cc1 [Candesartan] | 0.013 log2 fold change | −0.015 log2 fold change | 0.007 log2 fold change | −0.051 log2 fold change | 0.113 | −0.128 | 0.065 | −0.442 | −0.015 log2 fold change | −0.032 log2 fold change | −0.092 log2 fold change | −0.075 log2 fold change | −0.003 log2 fold change | −0.125 log2 fold change | −0.198 log2 fold change | −0.253 log2 fold change |  |  |  | 
